Experimental data published in patent US20170210741A1, “Benzimidazole Compounds, Use As Inhibitors of WNT Signaling Pathway in Cancers, and Methods for Preparation Thereof” (Southern Research Institute, priority 2016, published 2017).
Like-named read-outs stand apart in the source and are kept apart here.

Legend:
Format in all cases: cell-based
Wnt signaling = Wnt signaling reporter assay (Super8XTOPFlash luciferase) in LRP6-expressing HEK293 cells; conditions: Homo sapiens, 24 h treatment, luciferase normalized to β-galactosidase, read-out: IC50 (effects on Wnt signaling)
Procedure: HEK293 cells were plated into 24-well plates. After overnight culture, the cells were transiently transfected with 0.06 μg of the Super8XTOPFlash luciferase construct, 0.06 μg of β-galactosidase-expressing vector, and 0.06 μg of pCS-Myc-hLRP6 or control vector. After 24 h incubation, cells were treated with each individual compound in triplicate for 24 h. Cells were then lysed, and the luciferase and β-galactosidase activities were determined by the luciferase assay system (Promega) and β-galactosidase assay system (Promega), respectively. The luciferase activity was normalized to the β-galactosidase activity.
Table 2 below illustrates the effects of the disclosed compounds on Wnt signaling in LRP6-expressing HEK293 cells.

Suit-2 = test: In vitro cell viability assay (Cell Titer Glo), pancreatic cancer Suit-2; conditions: 72 h
Procedure: (§1) Breast cancer SUM159 was obtained from Asterand and grown according to supplier's recommendation. All other cell lines were obtained from ATCC and cultured in standard cell culture conditions with complete cell culture medium containing 10% FBS.
(§2) Cancer cells were seeded into optically clear tissue culture-treated black 96-well plates (for adherent cells) or low-attachment 96-well plates (for cancer stem cells) at 2,000-5000 cells/50 μL of media per well. The cells were treated with Wnt inhibitors at 0.1 to 10 μM for 72 h. Cell viability was measured by the Cell Titer Glo Assay from Promega.

S2VP10 = test: In vitro cell viability assay (Cell Titer Glo), pancreatic cancer S2VP10; conditions: 72 h
Procedure: as §1, §2

PANC-1 = test: In vitro cell viability assay (Cell Titer Glo), pancreatic cancer PANC-1; conditions: Homo sapiens, 72 h
Procedure: as §1, §2

HCT116 = test: In vitro cell viability assay (Cell Titer Glo), colorectal cancer HCT116; conditions: Homo sapiens, HCT-116, 72 h
Procedure: as §1, §2
(§3) Table 4 below illustrates the effects of the disclosed compounds on cell viability of colorectal cancer cell lines.

HT-29 = test: In vitro cell viability assay (Cell Titer Glo), colorectal cancer HT-29; conditions: Homo sapiens, 72 h
Procedure: as §1, §2, §3

MDA-MB-468 = test: In vitro cell viability assay (Cell Titer Glo), breast cancer MDA-MB-468; conditions: Homo sapiens, 72 h
Procedure: as §1, §2
(§4) Table 5 below illustrates the effects of the disclosed compounds on cell viability of breast cancer cell lines.

SUM159 = test: In vitro cell viability assay (Cell Titer Glo), breast cancer SUM159; conditions: 72 h
Procedure: as §1, §2, §4

HCC1143 = test: In vitro cell viability assay (Cell Titer Glo), breast cancer HCC1143; conditions: Homo sapiens, 72 h
Procedure: as §1, §2, §4

2LMP = test: In vitro cell viability assay (Cell Titer Glo), breast cancer 2LMP; conditions: 72 h
Procedure: as §1, §2, §4

L3.6pl = test: In vitro cell viability assay (Cell Titer Glo), pancreatic cancer L3.6pl; conditions: Homo sapiens, 72 h
Procedure: as §1, §2

[1] = Suit-2, CSC enriching serum free medium, non-adherent plates, read-out: Cell viability (IC50) Suit-2 CSC
[2] = Suit-2, adherent, complete medium 10% FBS, read-out: Cell viability (IC50) Suit-2 Adherent
[3] = S2VP10, CSC enriching serum free medium, non-adherent plates, read-out: Cell viability (IC50) S2VP10 CSC
[4] = S2VP10, adherent, complete medium 10% FBS, read-out: Cell viability (IC50) S2VP10 Adherent
[5] = PANC-1, adherent, complete medium 10% FBS, read-out: Cell viability (IC50) PANC-1 Adherent
[6] = PANC-1, cancer stem cell (CSC) enriching serum free medium, non-adherent plates, read-out: Cell viability (IC50) PANC-1 CSC
[7] = HCT116, CSC conditions, read-out: Cell viability (IC50) HCT116 CSC
[8] = HCT116, adherent, read-out: Cell viability (IC50) HCT116 Adherent
[9] = HT-29, CSC conditions, read-out: Cell viability (IC50) HT-29 CSC
[10] = HT-29, adherent, read-out: Cell viability (IC50) HT-29 Adherent
[11] = MDA-MB-468, CSC conditions, read-out: Cell viability (IC50) MDA-MB-468 CSC
[12] = MDA-MB-468, adherent, read-out: Cell viability (IC50) MDA-MB-468 Adherent
[13] = SUM159, CSC conditions, read-out: Cell viability (IC50) SUM159 CSC
[14] = SUM159, adherent, read-out: Cell viability (IC50) SUM159 Adherent
[15] = HCC1143, CSC conditions, read-out: Cell viability (IC50) HCC1143 CSC
[16] = HCC1143, adherent, read-out: Cell viability (IC50) HCC1143 Adherent
[17] = CSC conditions, read-out: Cell viability (IC50) 2LMP CSC
[18] = adherent, read-out: Cell viability (IC50) 2LMP Adherent
[19] = CSC enriching serum free medium, non-adherent plates, read-out: Cell viability (IC50) L3.6pl CSC
[20] = adherent, complete medium 10% FBS, read-out: Cell viability (IC50) L3.6pl Adherent

Row | IC50 (Suit-2; [1]) [µM] | IC50 (Suit-2; [2]) [µM] | IC50 (S2VP10; [3]) [µM] | IC50 (S2VP10; [4]) [µM] | IC50 (PANC-1; [5]) [µM] | IC50 (PANC-1; [6]) [µM] | IC50 (HCT116; [7]) [µM] | IC50 (HCT116; [8]) [µM] | IC50 (HT-29; [9]) [µM] | IC50 (HT-29; [10]) [µM] | IC50 (MDA-MB-468; [11]) [µM] | IC50 (MDA-MB-468; [12]) [µM] | IC50 (SUM159; [13]) [µM] | IC50 (SUM159; [14]) [µM] | IC50 (HCC1143; [15]) [µM] | IC50 (HCC1143; [16]) [µM] | IC50 (2LMP; [17]) [µM] | IC50 (2LMP; [18]) [µM] | IC50 (L3.6pl; [19]) [µM] | SMILES | IC50 (Wnt signaling) [µM] | further results
1 | 0.61 | 5.21 | 0.77 | 3.88 | 4.47 | 0.3 |  |  |  |  | 0.16 | 1.29 | 0.9 | 1.13 | 0.7 | 4.5 | 13 | 16.8 | 0.66 | FC(F)(F)c1ccc(-c2nc3c(Cl)cc(Cl)cc3[nH]2)cc1 [Compound 7, 4,6-Dichloro-2-(4-(trifluoromethyl)phenyl)-1H-benzo[d]imidazole] | 6.01 | IC50 (L3.6pl; [20]): 0.57 µM
2 | 0.84 | 8.92 | 0.77 | 4.86 | > 10 | 1.06 |  |  |  |  |  |  |  |  |  |  |  |  | 0.62 | FC(F)(F)Oc1ccc(-c2nc3c(Cl)cc(Cl)cc3[nH]2)cc1 [Compound 8, 4,6-Dichloro-2-(4-(trifluoromethoxy)phenyl)-1H-benzo[d]imidazole] | 7.92 | IC50 (L3.6pl; [20]): 1.19 µM
3 | 0.94 | 0.95 | 0.75 | 0.51 |  |  | 0.16 | 0.58 | 0.04 | 0.59 |  |  |  |  |  |  |  |  |  | Fc1cc2[nH]c(-c3ccc(N4CCCC4)cc3)nc2cc1Cl [Compound 31, 5-chloro-6-fluoro-2-(4-(pyrrolidin-1-yl)phenyl)-1H-benzo[d]imidazole] | 0.33 | 

More lines, now with the values behind:

Row | SMILES | IC50 (Suit-2; [1]) [µM] | IC50 (Suit-2; [2]) [µM] | IC50 (S2VP10; [3]) [µM] | IC50 (S2VP10; [4]) [µM] | IC50 (PANC-1; [5]) [µM] | IC50 (PANC-1; [6]) [µM] | IC50 (HCT116; [7]) [µM] | IC50 (HCT116; [8]) [µM] | IC50 (HT-29; [9]) [µM] | IC50 (HT-29; [10]) [µM] | IC50 (MDA-MB-468; [11]) [µM] | IC50 (MDA-MB-468; [12]) [µM] | IC50 (SUM159; [13]) [µM] | IC50 (SUM159; [14]) [µM] | IC50 (HCC1143; [15]) [µM] | IC50 (HCC1143; [16]) [µM] | IC50 (2LMP; [17]) [µM] | IC50 (2LMP; [18]) [µM] | IC50 (L3.6pl; [19]) [µM] | IC50 (Wnt signaling) [µM] | further results
4 | Oc1ccc(F)cc1-c1nc2c(Cl)cc(Cl)cc2[nH]1 [Compound 1, 2-(4,6-Dichloro-1H-benzo[d]imidazol-2-yl)-4-fluorophenol] | 2.84 | 9.13 | 0.92 | 1.62 | 1.74 | 0.21 |  |  |  |  |  |  |  |  |  |  |  |  |  | 1.34 | 
5 | Oc1ccc(F)cc1-c1nc2cc(Cl)c(F)cc2[nH]1 [Compound 3, 2-(5-Chloro-6-fluoro-1H-benzo[d]imidazol-2-yl)-4-fluorophenol] | 1.81 | 3.76 | 0.33 | 1.1 | 2.32 | 0.41 | 0.18 | 1.61 | 3.09 | 6.47 |  |  |  |  |  |  |  |  |  | 2.8 | 
6 | Oc1c(Cl)cccc1-c1nc2cc(C(F)(F)F)ccc2[nH]1 [Compound 5, 2-Chloro-6-(5-(trifluoromethyl)-1H-benzo[d]imidazol-2-yl)phenol] | 1.15 | 3.16 | 0.21 | 1.04 | 1.33 | 0.18 |  |  |  |  | 0.17 | 1.41 | 0.34 | 0.5 | 0.5 | 1.19 | 0.92 | 1.15 |  | 2.77 | 
7 | FC(F)(F)Oc1ccc(-c2nc3cc(Cl)c(Cl)cc3[nH]2)cc1 [Compound 6, 5,6-Dichloro-2-(4-(trifluoromethoxy)phenyl)-1H-benzo[d]imidazole] | 0.56 | 2.12 | 0.59 | 2.57 | 3.44 | 0.57 | 1.61 | 3.84 | 0.86 | 4.38 | 0.33 | 3.83 | 1.17 | 1.67 | 1.3 | 3.18 | 2.9 | 3.84 | 0.93 | 0.19 | 
